The source of these data is PMC8267647, “Metallacarborane Derivatives Effective against Pseudomonas aeruginosa and Yersinia enterocolitica” (International Journal of Molecular Sciences, 2021).

One data set has as its system mammalian cell culture. The note with it: cited from earlier work.
The next data set concerns MRSA. As to conditions: after 20 passages; cited from earlier work.
Data set [1] relates to Pseudomonas aeruginosa strain PCM 2058. Description: Bacterial growth inhibition IC50 in LB medium. As to conditions: 8-h time point, Luria-Bertani medium, 37 °C; ± SEM; read-out: IC50 for growth inhibition, Pa 2058. The class given is cell-based. How it is done: (§1) Bacterial growth inhibition was measured on a Spark 10 M (Tecan, AT) microplate reader as described previously (Swietnicki et al., 2019). Briefly, a bacterial culture in LB medium grown at 37 °C overnight was diluted 1:100 with a fresh medium and aliquoted into a 96-well plate at 98 μL/well with a multichannel pipette. A 2 μL aliquot of compound serially diluted in DMSO was added in triplicates, the plate was covered with a lid or a transparent plate sealer, and incubated at 37 °C for up to 24 h. Bacterial growth was monitored by following an A600 reading every hour. After the experiment, the data were stored in Excel format, transferred into KaleidaGraph software (Synergy Software, Reading, PA, USA) and the A600 was plotted versus log [Concentration]. The IC50 values were determined by fitting the readings at the 8 h time point to a sigmoidal model of inhibition. Each experiment was repeated at least 3 times to verify the values.

For data set [2], the system named is Pseudomonas aeruginosa strain PCM 499. Description: Bacterial growth inhibition IC50 in LB medium. As to conditions: 8-h time point, Luria-Bertani medium, 37 °C; ± SEM; read-out: IC50 for growth inhibition, Pa499. The class given is cell-based. How it is done: as §1
Data set [3] has as its system Yersinia enterocolitica strain PCM 2080. Description: Bacterial growth inhibition IC50 in LB medium. The class given is cell-based. As to conditions: 8-h time point, Luria-Bertani medium, 37 °C; ± SEM; read-out: IC50 for growth inhibition, Ye 2080. The procedure: as §1
The test system of data set [4] is Yersinia enterocolitica strain PCM 2090. The experiment in a line: Bacterial growth inhibition IC50 in LB medium. It counts as cell-based. The note with it: 8-h time point, Luria-Bertani medium, 37 °C; ± SEM; read-out: IC50 for growth inhibition, Ye 2090. How it is done:
as §1

The test system of data set [5] is Y. enterocolitica strain PCM 2080 grown in the presence of 200 μM compounds. Description: Cross-resistance generation: IC50 on compound-evolved bacteria. It counts as cell-based, Yersinia enterocolitica. The note with it: read-out: Resistance (IC50 value against the selected compound). The procedure: as §1
The evolution was performed in parallel using blood agar and LB agar plates prepared in-house. Briefly, a 200 μL aliquot of 200 μM compound in PBS was added to a fresh agar plate, spread on the surface, and left to dry in a BSC cabinet for approximately 30 min. After that time, a single colony from an overnight culture on a plate was spread on the surface before the plate was covered with a lid and left at 37 °C to incubate overnight. The procedure was repeated at least nine times for each plate. After the last step, a single colony was selected from a plate and added to a 3 mL aliquot of LB medium. […] Dual selection on different plates was necessary in cases where the growth inhibition was too strong to obtain single colonies on LB agar plates. […] Until then, the colonies were supplied from bacteria grown on the blood agar plates.

A further data set has as its system BALB/3T3. Description: Antiproliferative SRB assay. The class given is cell-based, mouse. As to conditions: SRB method, 72 h of treatment; highest concentration 100 μM; read-out: IC50 72h (95% CI) BALB/3T3. An excerpt: (§2) Rockville, Maryland, USA).
Background: Sulforhodamine B stains cellular protein and so reports cell mass.

A further data set relates to MCF 10A. Description: Antiproliferative SRB assay. It counts as cell-based, human. The note with it: SRB method, 72 h of treatment; highest concentration 100 μM; read-out: IC50 72h (95% CI) MCF 10A.
Source text: as §2

The subject of data set [6] is zebrafish (Danio rerio) larvae. Description: Danio rerio toxicity assay (modified Fish Embryo Toxicity test). It counts as in vivo. The note with it: for mortality rate: day 5; for visible morphological deformities: concentrations up to 10 μM; for mortality (share of the population): 10 μM, day 5 post-exposure. The procedure:
To determine acute toxicity of examined compounds modified Fish Embryo Toxicity (FET) test was performed of zebrafish (Danio rerio) according to OECD Test Guideline 236. Briefly, the collected embryos were transferred to a Petri dish with E3 medium (5 mM NaCl, 0.33 mM MgCl2, 0.33 mM CaCl2, 0.17 mM KCl; pH 7.2) and then placed in 24-well plates, 5 embryos per well, 10 per group. Stock solutions of boron cluster compounds were prepared in DMSO. In these experiments, three series of solutions with different concentrations were employed, which were freshly prepared by dissolving stock solutions in the E3 solution each time directly before addition to the wells. The solutions were changed once daily and the embryos were maintained in the incubator at 28.5 °C. Zebrafish embryos were evaluated for developmental abnormalities and viability at 24 h intervals for up to 5 days using a stereomicroscope (Zeiss Axio Vert, ZEISS, Germany). Morphological deformities of the heart, dorsal string, and tail development were measured and compared with the control embryos. Image analysis was performed to determine the percentage of dead and malformed embryos over time using Zeiss software. The experiment was performed in triplicate. Fish were taken from own fish facility of The Centre of Experimental Medicine, Medical University of Lublin. For the experiment AB OMD strain was used.
Figure 4 Toxicity of selected compounds on zebrafish (Danio rerio) larvae. Fish larvae were grown in 6-well plates in the presence of compounds for up to 5 days and the morphological deformities were analyzed from images as described under Materials and Methods. Representative photographs are shown. S, scoliosis; TA, tail autophagy; PE, pericardial edema.
Figure 5 Mortality rates of selected compounds on zebrafish (Danio rerio) larvae. The population size (n = 10) from Figure 4 was followed up to day 5 as described under Materials and Methods. Representative graphs are shown.

In data set [7] the test system is drug-resistant Y. enterocolitica strain 2080. The experiment in a line: SEM of drug-resistant bacteria. As to conditions: for bacterial growth seen under SEM: bacteria passaged at least nine times with 200 μM compound; for mechanism of biological activity: from SEM, 200 μM. It counts as cell-based, Yersinia enterocolitica. The procedure:
Scanning electron microscopy of Y. enterocolitica was performed at a low accelerating voltage of the primary beam without any coating or heavy-metal contrasting of the samples, as described in previous work. Bacteria were applied onto a polished silicon crystal chip and allowed to adhere for 30 min. The samples were fixed with 2.5% glutaraldehyde in 0.1 M cacodylate buffer for 30 min at 4 °C, then washed in water and dehydrated in a series of methanol solutions (25%-50%-75%-100%-100%) in one-hour steps at 4 °C. Samples underwent critical point drying with methanol exchanged for liquid CO2 in an automatized approach, (CPD300 AUTO, Leica Microsystems, Vienna, Austria) and imaged with a cross-beam scanning electron microscope equipped with a Schottky field-emission cathode (Auriga 60, Carl Zeiss, Oberkochen, Germany) at 0.8 kV accelerating voltage. Thus, the imaging was performed within a mode referred to as the low-voltage, field-emission scanning electron microscopy (LV-FESEM) of nonlabeled, critical point-dried samples.
Figure 3 Scanning electron microscopy of drug-resistant Y. enterocolitica strain 2080. […] After exposure to compound 1 for nine passages, there were only fragments of organic debris visible (B). In the presence of compounds 7 and 3, there were multiple bacteria observed with apparently normal morphology. Scale bars: (A) and (B) 500 nm, (C) and (E) 2.5 μm, (D) and (F) 1 μm.

The mark [8] stands for this setting: strain PCM 2080 grown with 200 μM compound 1 for at least nine generations.
Where [9] appears, read: strain PCM 2080 grown with 200 μM compound 3 for at least nine generations.
Setting [10] is: strain PCM 2080 grown with 200 μM compound 7 for at least nine generations.
Setting [11] is: 2 μM, up to day 5 post-exposure.
Where [12] appears, read: concentrations lower than 20 μM except 2 μM.

Like-named read-outs stand apart in the source and are kept apart here.

Turning to “3,3′-commo-bis[closo-1,2-dicarba-3-cobaltadodecaborate](1-) [COSAN, reference compound]”, in the data set on mammalian cell culture, the “concentration that reversibly blocks cell growth” value is “above 100 µM”.

On to “8-ethoxy-8′-iodo derivative of cobalt bis(1,2-dicarbollide) [Compound K121]”, for which the generation of resistance entry in the data set with MRSA is recorded as “not able to generate resistance”.

As to “Cs[8,8′-I2-3,3′-Co(1,2-C2B9H10)2] [Compound 1]”, the IC50 in [1] was 28.3 ± 6 µM; in data set [2], 11.4 ± 1 µM; in data set [3], 4.8 ± 3 µM; in data set [4], 2.5 ± 1.4 µM; in data set [5] (setting [8]), 2.6 ± 0.2 µM; in data set [5] (setting [9]), 4 ± 1 µM. Besides, the IC50 amounted to 3.1 ± 1 µM in [5] (setting [10]), 17 µM with BALB/3T3 and 59.8 µM in the data set on MCF 10A. Also, the mortality entry in data set [6] (setting [11]) was “none of the animals died”; in data set [6] (20 μM, day 4), “lethal to all larvae”. Besides, in [6] (setting [12]), the mortality rate is on record as 20%. Also, the visible morphological deformities result in data set [6] was “induced visible morphological deformities”. The “bacterial growth seen under SEM” value in [7] is on record as “generally inhibited bacterial growth”. Further, the “mechanism of biological activity” value in data set [7] is “most likely being bactericidal”. Further, the “change of ED50 versus COSAN” value in the data set on mammalian cell culture (mammalian cells) is “decreases the ED50 values approximately threefold”.

Consider “Cs[8-O-CHEt2-8′-I-3,3′-Co(1,2-C2B9H10)2] [Compound 4]”, for which the IC50 in data set [1] is 72 ± 30 µM; in data set [2], 52.9 ± 20 µM; in data set [3] it was 6.7 ± 2.3 µM; in [4], 5.3 ± 1 µM; in the data set on BALB/3T3, 11.3 µM; in the data set with MCF 10A, 50 µM. In addition, the mortality result is “none of the animals died” in data set [6] (setting [11]) and “lethal to all larvae” in data set [6] (20 μM, day 4). Moreover, in data set [6], the “mortality (share of the population)” value is recorded as not above 20%. The substance also gave a mortality rate in [6] (setting [12]) of 20%. Further, the visible morphological deformities result in data set [6] is reported as “did not induce visible deformities”.

Turning to “Cs[8-O-cyclo-C6H11-8′-I-3,3′-Co(1,2-C2B9H10)2] [Compound 5]”, the IC50 is 52.1 ± 15 µM in [1]; 52.1 ± 10 µM in data set [2]; 7.5 ± 4 µM in data set [3]; 3.3 ± 1 µM in [4]; 11.7 µM with BALB/3T3; 46.3 µM in the data set with MCF 10A. Further, the “mortality (share of the population)” value in [6] is not above 20%. Further, the morphological deformities result in data set [6] (20 μM) is “deformities of dorsal string”. Besides, the mortality rate in data set [6] (20 μM) is on record as 20%. Further, the visible morphological deformities result in [6] is “did not induce visible deformities”.

Take “Cs[8-O-iso-Bu-8′-I-3,3′-Co(1,2-C2B9H10)2] [Compound 3]”: the IC50 in data set [1] amounted to 59 ± 30 µM; in [2], 16.9 ± 8 µM; in data set [3] it was 4.2 ± 1.8 µM; in [4] it was 3.4 ± 1 µM; in [5] (setting [8]) it was 4.7 ± 1 µM; in [5] (setting [9]), 10.4 ± 3 µM. The IC50 amounted to 3.7 ± 1.2 µM in [5] (setting [10]), 10.2 µM in the data set with BALB/3T3 and 52.5 µM in the data set with MCF 10A. Moreover, the “bacterial growth seen under SEM” value in data set [7] was “did not inhibit the growth of bacteria”. Further, the “mechanism of biological activity” value in data set [7] is given as “blockage of bacterial cell division”.

With “Cs[8-O-n-Bu-8′-I-3,3′-Co(1,2-C2B9H10)2] [Compound 2]”, the IC50 in data set [1] was determined as 28 ± 8 µM; in [2], 12.1 ± 4 µM; in data set [3], 4.3 ± 1.5 µM; in data set [4], 2.4 ± 0.7 µM; in the data set with BALB/3T3 it was 3.7 µM; in the data set on MCF 10A it was 16.1 µM.

As to “[8-NH2-CHEt2-8′-I-3,3′-Co(1,2-C2B9H10)2] [Compound 8]”, the IC50 in the data set on BALB/3T3 was 0.023 µM; in the data set on MCF 10A, 0.045 µM.

In the case of “[8-NH2-cyclo-C6H11-8′-I-3,3′-Co(1,2-C2B9H10)2] [Compound 9]”, the values for the IC50 in the data set on BALB/3T3 and with MCF 10A were 0.067 µM and 0.082 µM, respectively.

Turning to “[8-NH2-iso-Bu-8′-I-3,3′-Co(1,2-C2B9H10)2] [Compound 7]”, the IC50 in data set [1] was 24.7 ± 8 µM; in data set [2] it was 58.7 ± 20 µM; in data set [3], 1.8 ± 0.8 µM; in [4] it was 6.2 ± 0.7 µM; in data set [5] (setting [8]) it was more than 37 µM; in [5] (setting [9]) it was more than 100 µM. Besides, the figures for the IC50 (in data set [5] (setting [10]); in the data set on BALB/3T3; with MCF 10A) were more than 100 µM, 0.024 µM and 0.115 µM, respectively. Besides, in data set [7], the “bacterial growth seen under SEM” value is given as “did not inhibit the growth of bacteria”. In data set [7], the “mechanism of biological activity” value is “blockage of bacterial cell division”.

As to “[8-NH2-n-Bu-8′-I-3,3′-Co(1,2-C2B9H10)2] [Compound 6]”, the IC50 in the data set with BALB/3T3 stood at 0.29 µM.
